The text below walks through data of patent US9763996B2, “Polymyxin derivative and uses thereof” (Northern Antibiotics Ltd., priority 2015, dated 2017).

Data set [1] in a line: Toxicokinetics (plasma and urine) in cynomolgus monkeys. The following applies: for AUC: plasma. How it is done: For seven days, the animals were dosed by intravenous (IV) infusion three times daily (TID) at a dose volume of 10 mL/kg for 1 hour (±10 minutes), 8±0.5 hours apart. The day of initial dose administration was designated study Day 1, with subsequent days consecutively numbered. Days prior to the initial dose administration were consecutively numbered with the final day of acclimation referenced as Day −1.
The following parameters were evaluated at designed intervals: clinical observations, body weights, clinical pathology (hematology, coagulation, serum chemistry, urinalysis including urine sediments and urine chemistry), toxicokinetics (plasma and urine) and anatomic pathology (kidney). In cases of animals sacrificed on an unscheduled basis, samples were taken on the day of the sacrifice.
Plasma and urine concentrations for toxicokinetic (TK) studies were determined by using liquid chromatograph interfaced with a mass spectrometer after precipitation of proteins. A sample (100 μL) was mixed with internal standard solution in water:formic acid (99:1 v/v; […]). Then, 600 μL of 100:1 acetonitrile:formic acid was added. The plates were centrifuged at 3200 rpm for 5 minutes. Using a Tomtec Quadra96, a 450 μL aliquot was transferred to a new 96-well plate and dried under nitrogen at 40° C. Then, 200 μL of water:methanol:formic acid (85:15:1 1 v/v) was added and the plate sealed for LC-MS/MS injection. LC-MS system consisted of Waters Acquity liquid chromatograph interfaced with a Thermo Scientific TSQ Quantitative triple quadrupole MS with ionization in the positive ion mode. Each sample (20 μL) was injected onto a Waters Acquity BEH Shield RP18 column (2.1×50 mm; 1.7 μm) equilibrated at 50° C. Mobile Phase A was 85:15:1 v/v water:methanol:formic acid. Mobile Phase B was 50:50:1 v/v acetonitrile:methanol:formic acid.
Peak area ratios from the calibration standard responses were regressed using a (1/concentration^2) linear fit for polymyxin B using colistin as the internal standard. For NAB739 and NAB815, peak areas from the calibration standard responses were regressed using a (1/concentration^2) quadratic fit (without the use of an internal standard).
The regression models were chosen based upon the behavior of the analytes across the concentration range used during development.
Toxicokinetic analysis was performed by using WinNonlin Phoenix version 6.3 software (Pharsight, Cary, N.C.). For plasma TK, noncompartmental IV infusion model was used.
In the cynomolgus monkey studies described in Example 3, where the peptides were administered as a 1-hour intravenous infusion three times daily, plasma and urine levels of the peptides were determined.

Another data set relates to Escherichia coli C175-94. The experiment in a line: Murine urinary tract infection efficacy. The following applies: for dose-response in the CFUs in the bladder and in the kidneys: 0.25-2 mg/kg/dose s.c. twice a day. It is filed as in vivo. How it is done:
The study used 64 outbred, OF-1 female mice (Charles River, France) weighing 28-32 grams and Escherichia coli C175-94 (serotype O8:K48:H4), a clinical isolate elaborating type 1 fimbriae. The peptides were NAB815 (Lot 1054308) and polymyxin B (Sigma-Aldrich, batch BCBF8382V). The study was performed by Statens Serum Institut, Copenhagen, Denmark.
Three days before the start of the study and during the study, the mice had free access to 5% glucose in drinking water.
On day 0, the urine was removed from the bladder by gently pressing the abdomen. Thereafter, the mouse was anaesthetized with approximately 0.15 ml of Zoletil mix s.c. A syringe with polyethylene catheter (Becton Dickison) containing the bacterial suspension was inserted via the urethra into the bladder and 50 μl of the bacterial inoculum was slowly injected into the bladder. Thereafter, the mouse was left in the cage. Mice were kept in a warming cabinet and were under surveillance until fully awake.
After measuring the colony forming units (CFUs), the inoculum was determined to contain 9.38 log 10 CFU/ml, corresponding to 8.08 log 10 CFU/mouse.
On day 1 and day 2 postinfection, the mice were treated subcutaneously with solutions (0.2 ml) containing NAB815, polymyxin B or vehicle (0.9% NaCl) twice a day. The treatment groups (six mice in each) were the following: vehicle control; NAB815, 0.25 mg/kg/dose; NAB815, 0.5 mg/kg/dose; NAB815, 1 mg/kg/dose; NAB815, 2 mg/kg/dose; polymyxin B, 0.25 mg/kg/dose; polymyxin B, 0.5 mg/kg/dose; polymyxin B, 1 mg/kg/dose; and polymyxin B, 2 mg/kg/dose. In addition, one group served as a pretreatment control to help to assess as how the infection has proceeded before the start of the treatment on day 1 postinfection.
On days 1, 2 and 3 postinfection urine was sampled for colony counts. On day 1 postinfection (pretreatment control group) and on day 3 postinfection (all the other groups) after the urine sample was taken, mice were sacrificed by cervical dislocation and bladder and kidneys were removed aseptically. The bladder and kidneys were stored at −80° C. and later homogenized in 0.5 and 1 ml saline, respectively.
CFUs in urine were determined immediately within 2-3 hours after sampling. Frozen organs were thawed and homogenized with steel beads on a tissue lyser. All samples, urine, kidney and bladder, were 10 fold diluted in saline and 20-μl spots were applied on blood agar plates in duplicates. In addition, undiluted samples of urine (2-100 μl depending on the amount of urine) were spread on a separate agar plate to determine the lowest possible detection level of the colony counts. All agar plates were incubated 18-22 h at 35° C. in ambient air.

The test system of the next data set is E. coli JMI 3328. The following applies: for MIC: E. coli JMI 3328.
The subject of another data set is A. baumannii ATCC 19606. The following applies: A. baumannii ATCC 19606.
A further data set deals with P. aeruginosa JMI 7445. The following applies: P. aeruginosa JMI 7445.
Setting [2] is: of all 24 mice treated at 0.25-2 mg/kg/dose.
The mark [3] stands for this setting: in combination with rifampin 0.25 μg/mL.
Where [4] appears, read: peptide at 1 μg/mL, E. coli JM13328.
Setting [5] is: alone, K. pneumoniae JMI 27068 (polymyxin-nonsusceptible).
[6] abbreviates: in combination with rifampin 0.25 μg/mL, K. pneumoniae JMI 27068.
The mark [7] stands for this setting: in combination with rifampin 0.25 μg/mL, A. baumannii CMI 417.

In brackets after ≈: the same amount, converted by molar mass. Several values for one entry are separate records, joined by “and”; a condition that tells them apart may be missing. Identical values can stand only once. Like-named read-outs stand apart in the source and are kept apart here. Where a SMILES comes first, the peptide text is derived from it. Bridges are numbered along the chain shown (N, C = ends). [ ]: non-standard residue; d: D form. The star is where a group is joined. Octanoyl = CCCCCCCC(=O)*; Dab = NCC[C@H](N)C(=O)O; Abu = CC[C@H](N)C(=O)O

In general, AUC refers to the area under the concentration-time curve, a measure of exposure. Lower therefore signals low exposure. A word on the MIC: it is the lowest concentration that inhibits growth of the organism.

Regarding `CCCCCCCC(=O)N[C@@H](CCN)C(=O)N[C@H](C(=O)N[C@@H](C(=O)N[C@H]1CCNC(=O)[C@H]([C@@H](C)O)NC(=O)[C@H](CCN)NC(=O)[C@H](CC)NC(=O)[C@H](CC(C)C)NC(=O)[C@@H](Cc2ccccc2)NC(=O)[C@H](CCN)NC1=O)[C@H](C)O)[C@@H](C)O` [NAB815, octanoyl-αDab-Thr-DThr-[cyclo-α,γDab-αDab-DPhe-Leu-Abu-αDab-Thr]] (Octanoyl-[Dab]T[dT][Dab][Dab][dF]L[Abu][Dab]T; lactam 4-C), the AUC in data set [1] (cynomolgus monkey, in vivo, 36 mg/kg/day, AUCs, dosed at 36 mg/kg/d, day 1) came out at 153 µg·h/mL; in data set [1] (cynomolgus monkey, in vivo, iv, 8 mg/kg, AUCs 0-8 h, after infusion of 8 mg/kg, day 1), 102 µg·h/mL; in data set [1] (cynomolgus monkey, in vivo, iv, 8 mg/kg, AUCs 0-8 h, after infusion of 8 mg/kg, day 7), 110 µg·h/mL; in data set [1] (cynomolgus monkey, in vivo, iv, 36 mg/kg/day, AUCs, dosed at 36 mg/kg/d, day 7) it was 205 µg·h/mL. Further, the dose excreted in data set [1] (female, cynomolgus monkey, in vivo, iv, 36 mg/kg/d, urinary recoveries (0-8 h urine collection), 36 mg/kg/d, day 7, each animal) is 33.9%. In addition, the “CFU levels in urine, day 3 vs pretreatment control day 1” value with Escherichia coli C175-94 (0.25 mg/kg/dose s.c. twice a day, OF-1 female mice) is recorded as “no significant differences”; with Escherichia coli C175-94 (0.5 mg/kg/dose s.c. twice a day, OF-1 female mice) it was “no significant differences”; in the data set with Escherichia coli C175-94 (1 mg/kg/dose s.c. twice a day, OF-1 female mice, ** p<0.01) it was “significant reduction of CFU levels in urine”; with Escherichia coli C175-94 (2 mg/kg/dose s.c. twice a day, OF-1 female mice, * p<0.05), “significant reduction of CFU levels in urine”. The “dose-response in the CFUs in the bladder and in the kidneys” value in the data set with Escherichia coli C175-94 is “showed a tendency of a dose-response”. Also, the “number of mice with bacterial levels below the detection limit in the kidneys” value in the data set on Escherichia coli C175-94 (setting [2]) is given as 20 mice. Moreover, the “number of mice with bacterial levels below the detection limit in the urine” value in the data set on Escherichia coli C175-94 (setting [2]) stood at 8 mice. Moreover, the MIC with E. coli JMI 3328 (alone) was 4 µg/mL (≈ 3.4 µM); with E. coli JMI 3328 (setting [3]), 1 µg/mL; in the data set on A. baumannii ATCC 19606 (alone), 4 µg/mL (≈ 3.4 µM); with A. baumannii ATCC 19606 (setting [3]) it was 0.5 to 2 µg/mL; with P. aeruginosa JMI 7445 (alone), 8 µg/mL (≈ 6.81 µM); with K. pneumoniae JMI 27068 (setting [5]) it was 128 µg/mL (≈ 109 µM). Besides, the results for the minimal inhibitory concentration (MIC) in the data set with K. pneumoniae JMI 27068 (setting [6]) and in the data set with A. baumannii CMI 417 (setting [7]) were 4 µg/mL and 2 µg/mL, respectively. Further, the “MIC of rifampin in the presence of the peptide” value in the data set on E. coli JMI 3328 (setting [4]) was determined as 0.25 µg/mL. The “factor of decrease of the MIC of rifampin” value in the data set on E. coli JMI 3328 (setting [4]) is 32.
Consider Polymyxin B, for which the “0-8 h recovery in urine (of the dose)” value in data set [1] (after infusion of 8 mg/kg, given for each animal, 8 mg/kg) was 1% and 2% (2×). Also, in the data set with Escherichia coli C175-94, the “dose-response in the CFUs in the bladder and in the kidneys” value was “did not show any dose-response tendency”. In addition, the “CFU levels in urine, day 3 vs pretreatment control day 1” value with Escherichia coli C175-94 (any dose group (0.25, 0.5, 1, 2 mg/kg/dose) s.c. twice a day) was “no significant differences”. The “number of mice with bacterial levels below the detection limit in the urine” value in the data set with Escherichia coli C175-94 (setting [2]) was 1 mice. For the same molecule, the MIC with E. coli JMI 3328 (alone) was 2 µg/mL; in the data set on E. coli JMI 3328 (setting [3]), 0.5 to 1 µg/mL; against A. baumannii ATCC 19606 (alone), 2 µg/mL; in the data set with A. baumannii ATCC 19606 (setting [3]), 0.5 µg/mL; against P. aeruginosa JMI 7445 (alone), 2 µg/mL; in the data set with P. aeruginosa JMI 7445 (setting [3]) it was 1 µg/mL. For the same molecule, the minimal inhibitory concentration (MIC) is 64 µg/mL against K. pneumoniae JMI 27068 (setting [5]); 1 µg/mL in the data set on K. pneumoniae JMI 27068 (setting [6]); 32 µg/mL against A. baumannii CMI 417 (alone, A. baumannii CMI 417 (polymyxin-nonsusceptible)); 1 µg/mL in the data set with A. baumannii CMI 417 (setting [7]).
